# Data from article PMC12308784, “Organometallic Half-Sandwich Complexes of 1,10-Phenanthroline Derivatives with Improved Solubility, Albumin-Binding, and Nanoformulation Potential Targeting Drug Resistance in Cancer” (Inorganic Chemistry, 2025).
# Several values for one entry are separate records, joined by “and”; a condition that tells them apart may be missing. Equal entries are not always repeated. Where two headings read alike, the source gives them in different places.
# What was measured:
# [1] = test system: MDA-MB-231, MCF-7 and T-47D breast cancer cell lines; assay: PrestoBlue cytotoxicity, range over the three breast cancer lines; type: cell-based; conditions: MDA-MB-231, MCF-7, T-47D; 72 h
# Protocol: The PHEN-derived ligands (DCP, BP) (together with PHEN for comparison) and the isolated complexes ([RuCym(DCP)-Cl]-Cl, [RhCp*(DCP)-Cl]-Cl, [RuCym(BP)-Cl]-Cl, [RhCp*(BP)-Cl]-Cl) were tested against the estrogen receptor (ER) negative MDA-MB-231, and the ER positive MCF-7 and T-47D breast cancer cell lines (Table , and Figure a for easier comparison).
# (§1) MDA-MB-231 breast adenocarcinoma and MCF-7 and T-47D invasive breast carcinomas were purchased from the Developmental Therapeutic Program of the National Cancer Institute (NIH, USA), and they were cultured in RPMI medium (Thermo Fisher). MES–SA and MES–SA/Dx5 uterine sarcoma cell lines were purchased from American Type Culture Collection and were kept in DMEM (Thermo Fisher). MES–SA/B1 was created by the transfection of the human MDR1 gene in MES–SA, and MES–SA mCherry, MES–SA/B1 mOrange, and MES–SA/Dx5 eGFP were engineered to stably express the respective fluorescent proteins, as described previously. Culture media were supplemented with 10% fetal bovine serum, 2 mM L-glutamine, 100 units/mL penicillin, and 100 μg/mL streptomycin (Thermo Fisher). Cells were kept at 37 °C under 5% CO2 and were negative for mycoplasma infection.
# (§2) Cytotoxicity of the nonfluorescent cancer cells (MDA-MB-231, MCF-7, T-47D) were assessed with PrestoBlue cell viability reagent (Thermo Fisher). Briefly, 2500 cells/well were seeded on 384-well plates, and then the next day drugs were added. After 72 h incubation, PrestoBlue was added in a 10% final concentration, and after an hour of additional incubation, plates were measured with a PerkinElmer EnSpire plate reader at 555 nm/585 nm excitation/emission wavelengths. Fluorescent cells (MES-SA mCherry, MES-SA/B1 mOrange, MES-SA/Dx5 eGFP) were admixed before seeding on 384-well plates at 800 cells/well density each, thus altogether 2400 cells/well. Drugs were added the following day, and the intensity of the fluorescent proteins were measured after 144 h incubation at the respective fluorescent channels (excitation/emission: eGFP: 485 nm/510 nm; mCherry: 585 nm/610 nm; mOrange: 545 nm/567 nm). pIC50 values were calculated by a custom program written by Judit Sessler in C#. IC50 values and standard deviation were calculated from average pIC50 values from at least 3 independent measurements.
# [2] = n-octanol/water distribution coefficient, shake-flask; type: physicochemical; conditions: n-octanol/20 mM phosphate buffer, pH = 7.4, t = 25 °C; for logD at 4 h: n-octanol/buffered aqueous solution
# Description: The bioactive compounds must cross the cell membrane, which is influenced by their lipophilicity. Therefore, we characterized the lipophilicity of the complexes using n-octanol–water partitioning at three different chloride ion concentrations at pH 7.4. As the H2O/Cl^– exchange alters the charge of the complexes, it consequently affects their lipophilicity. The ratio of chlorido and aqua complexes depends on the actual Cl^– concentration and the chloride affinity of the complex. Chloride ion concentrations were chosen to mimic physiological conditions, specifically those found in blood (100 mM), cytosol (24 mM), and the nucleus (4 mM).
# The traditional shake-flask method was used to obtain distribution coefficients of the ligands as well as of the complexes in n-octanol/buffered aqueous solution (20 mM phosphate, pH = 7.4) at different chloride ion concentrations (4, 24, and 100 mM) using UV–vis spectrophotometry (Agilent Cary 8454 diode array spectrophotometer) for the analysis. The compounds were dissolved in buffered aqueous solutions previously saturated with n-octanol. Then the aqueous and n-octanol phases were gently mixed in different volume ratios (using 1:60 for the ligands, 1:10 for the RhCp* and the RuCym complexes ratios of n-octanol to buffered aqueous solution volume) for 4 h, followed by phase separation. Then the UV–vis spectrum of the original aqueous sample and the aqueous and n-octanol phases was recorded and distribution coefficients (D) were calculated according to the formula described in our former work in detail.
# [3] = test system: MES-SA/Dx5-eGFP; assay: fluorescent triple coculture cytotoxicity assay; type: cell-based, human; conditions: for SR (MES-SA/Dx5): selectivity ratio versus parental MES-SA
# Description: (§3) Cytotoxicity of the compounds were further tested also in an in vitro MDR model system, consisting of an MES-SA uterine sarcoma cell line, and its P-gp (ABCB1) overexpressing variants MES-SA/B1, that was genetically engineered to express P-gp, and MES-SA/Dx5, which acquired a P-gp-mediated MDR phenotype due to selection in doxorubicin. , The expression of different fluorescent proteins in each line (mCherry, mOrange, or eGFP) allowed coculturing of these three cell lines, providing more relevant data compared to monocultures, as the interaction between parental and resistant phenotypes is reflected in cytotoxicity.
# (§4) Cytotoxicity of nanoformulated [RhCp*(BP)-Cl]-Cl with cross-linked HSA and HTP carriers was tested against the previously introduced triple coculture of fluorescent MES-SA cells with a slight difference. Namely, the media containing the dissolved products were removed from the wells, and fresh media was added prior to the measurement as the presence of cross-linked HSA and HTP formulations interfered with the fluorescence of the cells.
# as §1
# as §2, with “Fluorescent cells (MES-SA mCherry, MES-SA/B1 mOrange, MES-SA/Dx5 eGFP) were admixed before seeding on 384-well plates at 800 cells/well density each, thus altogether 2400 cells/well.” left out, “measurements. Since the IC50 values were obtained through nonlinear regression fitting of the viability vs. log(concentration) data, the resulting confidence intervals are inherently asymmetric (see pIC50 values and their corresponding SD in Tables S5 and S6).” for “measurements.”
# [4] = test system: MES-SA mCherry; assay: fluorescent triple coculture cytotoxicity assay; type: cell-based, human
# Description: as §3, §4, §1
# as §2, with “Fluorescent cells (MES-SA mCherry, MES-SA/B1 mOrange, MES-SA/Dx5 eGFP) were admixed before seeding on 384-well plates at 800 cells/well density each, thus altogether 2400 cells/well.” left out, “measurements. Since the IC50 values were obtained through nonlinear regression fitting of the viability vs. log(concentration) data, the resulting confidence intervals are inherently asymmetric (see pIC50 values and their corresponding SD in Tables S5 and S6).” for “measurements.”
# [5] = test system: MES-SA/B1-mOrange; assay: fluorescent triple coculture cytotoxicity assay; type: cell-based, human; conditions: for SR (MES-SA/B1): selectivity ratio versus parental MES-SA
# Description: as §3, §4, §1
# as §2, with “Fluorescent cells (MES-SA mCherry, MES-SA/B1 mOrange, MES-SA/Dx5 eGFP) were admixed before seeding on 384-well plates at 800 cells/well density each, thus altogether 2400 cells/well.” left out, “measurements. Since the IC50 values were obtained through nonlinear regression fitting of the viability vs. log(concentration) data, the resulting confidence intervals are inherently asymmetric (see pIC50 values and their corresponding SD in Tables S5 and S6).” for “measurements.”
# [6] = Homo sapiens, MES-SA/Dx5-eGFP, coculture, 384-well plate, 144 h, read-out: IC50
# [7] = Homo sapiens, Mes-Sa/Dx5 eGFP, 384-well plate, Table S6, read-out: pIC50 (mean) (converted)
# [8] = Homo sapiens, MES-SA, 144 h, MES-SA mCherry, coculture, 384-well plate, 144 h, read-out: IC50
# [9] = Homo sapiens, MES-SA, Mes-Sa mCherry, 384-well plate, Table S6, read-out: pIC50 (mean) (converted)
# [10] = Homo sapiens, MES-SA/B1-mOrange, coculture, 384-well plate, 144 h, read-out: IC50
# [11] = Homo sapiens, Mes-Sa/B1 mOrange, 384-well plate, Table S6, read-out: pIC50 (mean) (converted)
# [12] = MES-SA mCherry, coculture, 384-well plate, 144 h, read-out: IC50
# [13] = MES-SA/Dx5-eGFP, coculture, 384-well plate, 144 h, read-out: IC50
# [14] = Mes-Sa/Dx5 eGFP, 384-well plate, Table S6
# [15] = Mes-Sa mCherry, 384-well plate, Table S6
# [16] = MES-SA/B1-mOrange, coculture, 384-well plate, 144 h, read-out: IC50
# [17] = Mes-Sa/B1 mOrange, 384-well plate, Table S6
Compound,IC50 [1],logD at 4 h ([2]; c(Cl–) = 100 mM),"IC50 [3, 6]","IC50 [3, 7]",SR (MES-SA/Dx5) ([3]; 384-well plate),"IC50 [4, 8]","IC50 [4, 9]","IC50 [5, 10]","IC50 [5, 11]",SR (MES-SA/B1) ([5]; 384-well plate),"IC50 [4, 12]",logD ([2]; c(Cl–) = 4 mM),logD ([2]; c(Cl–) = 24 mM),logD ([2]; c(Cl–) = 100 mM),"IC50 [3, 13]","pIC50 (mean) [3, 14]","pIC50 (mean) [4, 15]","IC50 [5, 16]","pIC50 (mean) [5, 17]",further results
"c1ccc(-c2ccnc3c2ccc2c(-c4ccccc4)ccnc23)cc1 [BP, 4,7-diphenyl-1,10-phenanthroline]",0.59 to 0.76 µM,3.69,0.01 µM,0.00851 µM,54.7,0.47 µM,0.468 µM,0.14 µM,0.138 µM,3.4,,,,,,,,,,
"Clc1ccnc2c1ccc1c(Cl)ccnc12 [DCP, 4,7-dichloro-1,10-phenanthroline]",3.8 to 5.1 µM,2.4,0.48 µM,0.49 µM,6.3,3.1 µM,3.02 µM,4.9 µM,4.9 µM,0.6,3.05 µM,,,,,,,,,
"Cc1c(C)c(C)[c-](C)c1C.Clc1ccnc2c1ccc1c(Cl)ccnc12.[Cl-].[Cl-].[Rh+3] [RhCp*DCP, [Rh(III)(η^5-C5Me5)(4,7-dichloro-1,10-phenanthroline)Cl]Cl]",5.9 to 7.6 µM,,,,5.6,,,,,0.7,,–1.03 ± 0.03,–0.59 ± 0.02,–0.38 ± 0.02,0.75 µM,6.12,5.38,6.38 µM,5.20,"IC50 ([4]; MES-SA mCherry, coculture, 384-well plate, 144 h, listed as [RhCp*(DCP)Cl]Cl, read-out: IC50): 4.2 µM and 4.22 µM"
"Cc1ccc(C(C)C)cc1.[Cl-].[Cl-].[Ru+2].c1ccc(-c2ccnc3c2ccc2c(-c4ccccc4)ccnc23)cc1 [RuCymBP, [Ru(II)(η^6-p-cymene)(bathophenanthroline)Cl]Cl]",1.2 to 1.9 µM,,,,0.01,,,,,0.01,0.53 µM,+1.46 ± 0.02,+1.97 ± 0.02,+2.48 ± 0.02,41 µM,4.39,6.28,55 µM,4.26,
"Cc1ccc(C(C)C)cc1.Clc1ccnc2c1ccc1c(Cl)ccnc12.[Cl-].[Cl-].[Ru+2] [RuCymDCP, [Ru(II)(η^6-p-cymene)(4,7-dichloro-1,10-phenanthroline)Cl]Cl]",> 75 µM,,,,,,,,,,65.6 µM,–0.55 ± 0.04,+0.04 ± 0.12,+0.35 ± 0.12,> 100 µM,,4.18,> 100 µM,,
[Rh(III)(η^5-C5Me5)(bathophenanthroline)Cl]Cl [RhCp*BP],4.7 to 14.9 µM,,,,6.7,,,,,1.1,,+0.82 ± 0.01,+1.35 ± 0.03,,0.23 µM,6.63,5.81,1.37 µM,5.86,"IC50 ([3]; MES-SA/Dx5-eGFP, coculture, 96-well plate, media replaced before measurement, read-out: IC50): 1.77 µM; pIC50 (mean) ([3]; Mes-Sa/Dx5 eGFP, 96-well plate, Table S6): 5.75; SR (MES-SA/Dx5) ([3]; 96-well plate): 1.6; IC50 ([4]; MES-SA mCherry, coculture, 96-well plate, media replaced before measurement, read-out: IC50): 2.9 µM; IC50 ([4]; MES-SA mCherry, coculture, 384-well plate, 144 h, listed as [RhCp*(BP)Cl]Cl, read-out: IC50): 1.56 µM; pIC50 (mean) ([4]; Mes-Sa mCherry, 96-well plate, Table S6): 5.54; IC50 ([5]; MES-SA/B1-mOrange, coculture, 96-well plate, media replaced before measurement, read-out: IC50): 2.43 µM; pIC50 (mean) ([5]; Mes-Sa/B1 mOrange, 96-well plate, Table S6): 5.61; SR (MES-SA/B1) ([5]; 96-well plate): 1.2"
